Measurements reported in patent publication US7935708B2, “Dihydropyrazolopyrimidinone derivatives” (MSD K.K., priority 2006, dated 2011).

Tested on: Human colon cancer cells (WiDr)
Test: Checkpoint escape effect in gemcitabine-treated WiDr cells (phosphorylated histone H3-positive cells)
Type: cell-based
Conditions: gemcitabine 100 nM 24 hours, then test compound with nocodazole 8 hours
Source text: Pharmaceutical Text 3 (Method of Determining Drug Potency in Cells (Checkpoint-Removing Effect))
Fetal bovine serum (FBS) was obtained from Morgate; DMEM was from Invitrogen; gemcitabine was from Nippon Eli Lilly; nocodazole and 4′,6-diamidino-2-phenylindole were from Sigma; rabbit anti-phosphorylated histone H3 antibody was from Upstate; and fluorescence-labeled (Alexa Fluor 488) anti-rabbit IgG antibody was from Molecular Probe.
Human colon cancer cells (WiDr) were obtained from American Type Culture Collection (ATCC).
c) Method of Effect Determination:
The cells were suspended in DMEM containing 10% FBS, and the cell suspension was applied to a poly-D-lysine-coated 96-well plastic plate (bought from Becton Dickinson) in an amount of 2000 cells/100 μL/well, in which the cells were incubated overnight in 5% CO2-95% air at 37° C. Gemcitabine was dissolved in phosphate-buffered saline (PBS), and diluted with DMEM containing 10% FBS, and then this was applied to the plate on which the cells had been previously sowed, in an amount of 50 μL/well in such a manner that the final concentration of gemcitabine could be 100 nM. Then, the cells were incubated for 24 hours at 37° C. in 5% CO2-95% air. The test compound was stepwise diluted with dimethylsulfoxide, then diluted with 1200 nM nocodazole-containing DMEM containing 10% FBS, and applied to the plate on which the gemcitabine-treated cells had been sowed, in an amount of 50 μL/well. […] Next, this was washed with PBS, and a solution containing 4′,6-diamidino-2-phenylindole that had been diluted with 1% BSA/PBS to have a concentration 10 μg/mL and a fluorescence-labeled (Alexa Fluor 488) anti-rabbit IgG antibody that had been diluted 250-fold was added to it in an amount 50 μL/well, and reacted in a dark place at room temperature for 60 minutes. Finally, this was washed with PBS, and its fluorescence intensity was determined to calculate the ratio of the phosphorylated histone H3-positive cells (cells that had been in a cell division cycle through removal of checkpoint). […]

SMILES	EC50
C=CCn1c(=O)c2cnc(Nc3ccc(N4CCN(C)CC4)c(CO)c3)nc2n1-c1ccsc1 [Example 3, 2-allyl-6-{[3-(hydroxymethyl)-4-(4-methylpiperazin-1-yl)phenyl]amino}-1-(3-thienyl)-1,2-dihydro-3H-pyrazolo[3,4-d]pyrimidin-3-one]	268 nM
C=CCn1c(=O)c2cnc(Nc3ccc(N4CCN(C)CC4)cc3)nc2n1-c1cccc(N2CCN(C)C2=O)n1 [Example 148, 2-allyl-1-[6-(3-methyl-2-oxoimidazolidin-1-yl)pyridin-2-yl]-6-{[4-(4-methylpiperazin-1-yl)phenyl]amino}-1,2-dihydro-3H-pyrazolo[3,4-d]pyrimidin-3-one]	100 nM
